Consider two molecules from article PMC7321108, “1-Hydroxyanthraquinones Containing Aryl Substituents as Potent and Selective Anticancer Agents” (Molecules, 2020).

Data set [1] concerns U-87MG glioblastoma cells. As to the kind of experiment: MTT cytotoxicity assay, U-87MG. Type of data set: cell-based. Particulars: Homo sapiens, 72 h incubation, mean ± SEM of three experiments, read-out: Cytotoxicity (GI50) against U-87MG. The gist of the method:
(§1)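 72 h compound exposure (DMSO vehicle), RPMI-1640/10% calf serum, 37 °C, 5% CO2; triplicates. 1% MTT 4 h, DMSO solubilization, OD 450 nm. GI50 = conc. giving 50% cell death / 2-fold OD drop vs untreated wells; mean ± SEM of three independent experiments.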
In general terms: Formazan colour is commonly taken as a measure of viable cells.

The subject of data set [2] is DU-145 cells. As to the kind of experiment: DNA synthesis investigation (BrdU/PI flow cytometry), DU-145. The format is cell-based, human. Particulars: DU-145, treated at GI50 concentration, 24 h, BrdU 30 min.
Method: (§2) Cell cycle analysis was performed by Flow Cytometry using BrdU and PI staining [63]. For this experiment cells were seeded in 6-well plates (30,000 per plate) and incubate for adhesion for 24 h. […] For the next step the BrdU stock was added at a final concentration of 30 µM and cells were incubated for 30 min. Cells were washed with PBS, harvested using trypsine and resuspended at 0.3 mL of PBS. Permeabilization of cell membrane was performed as follows: 0.7 mL of ice-cold 100% EtOH was added into each sample, mixed gently and incubate at 4 °C for 1 h. Cells were pelleted and supernatant was removed completely. Then 0.5 mL of 2 N HCl/0.5% Triton X-100 was added and samples were incubated 30 min at room temperature. Cells were pelleted again, supernatant was removed. The pellet was resuspended in 0.5 mL of 0.1 M sodium tetraborate for 2 min and cells were pelleted again, washed with 150 µL of PBS/1% BSA and resuspended in 50 µM 0.5% Tween 20/1% BSA/PBS. […] After that the samples were resuspended in 0.5 mL of PBS containing 10 mg/mL RNAse A and 20 mg/mL PI. Samples were incubated at room temperature for 30 min and analyzed immediately or store at 4 °C. CytoFLEX flow cytometer (Beckman Coulter) was used for analysis. The results are presented as a percentage of cell population standing in DNA synthesis process.
The subject of data set [3] is DU-145 cells. As to the kind of experiment: Cell cycle analysis by flow cytometry (Hoechst 33342), DU-145. Type of data set: cell-based, human. The note with it: DU-145, treated at GI50 concentration, 24 h. The protocol: We have carried out flow cytometric study of compounds 13, 16 and the isomeric compound 25 (Table 4, Figure 4G,H). Concentrations of 16 and 25 were taken as 5.4 and 14.5 μM, respectively, as per cytotoxic studies (Table 1). After examining the data for 13 (Figure 4G, Table 4), a good number of cells are arrested in Sub-G1, G0/G1 and S phase. Biosynthetic activity is very high during Sub-G1 phase; this is probably achieved by enhancing of apoptosis. The isomeric molecule 25 arrest G0/G1 and S phases, i.e., affecting the DNA synthesis/replication mechanism. Similarly, for 25 a different pattern is observed, i.e., variations at S and G2/M phases were observed, in comparison to the control. […] Some difference in the mechanism of operation of 13 and 25 has been observed during the progression of cell cycle like: Sub-G1 phase was highly disturbed by 13 and S and G0/G1 phases were highly disturbed by 25.
For cell cycle analysis cells were seeded in 6-well plates (30,000 per plate) and incubate for adhesion for 24 h. […] Cells were washed with PBS twice, harvested, pelleted and resuspended in 0.5 mL of PBS. For staining the Hoechst 33342 Ready Flow Reagent (Invitrogen) was used according to the instruction. CytoFLEX flow cytometer (Beckman Coulter) was used for analysis. The results are presented as a percentage of cell population standing in different stages of the cell cycle.

For data set [4], the system named is LNCAP prostate cancer cells. As to the kind of experiment: MTT cytotoxicity assay, LNCAP. Type of data set: cell-based, human. Particulars: Homo sapiens, LNCaP, 72 h, 72 h incubation, mean ± SEM of three experiments, read-out: Cytotoxicity (GI50) against LNCAP. The gist of the method: as §1
For data set [5], the system named is DU-145 prostate cancer cells. The data set can be described thus: MTT cytotoxicity assay, DU-145. The format is cell-based, human. Particulars: Homo sapiens, DU-145, 72 h, 72 h incubation, mean ± SEM of three experiments, read-out: Cytotoxicity (GI50) against DU-145. Put shortly: as §1
The subject of data set [6] is MDA-MB-231 breast cancer cells. As to the kind of experiment: MTT cytotoxicity assay, MDA-MB-231. Type of data set: cell-based. The note with it: Homo sapiens, 72 h incubation, mean ± SEM of three experiments, read-out: Cytotoxicity (GI50) against MDA-MB-231. Put shortly: as §1
The test system of data set [7] is MT-4 cells of T-cellular human leucosis. As to the kind of experiment: MTT cytotoxicity assay, MT-4. The format is cell-based. Particulars: MT4, 72 h incubation, mean ± SEM of three experiments, read-out: Cytotoxicity (GI50) against MT-4. The gist of the method:
as §1

The next data set has as its system SNB-19 cells. As to the kind of experiment: DNA synthesis investigation (BrdU/PI flow cytometry), SNB-19. The format is cell-based, human. Particulars: SNB-19, treated at GI50 concentration, 24 h, BrdU 30 min. (In general: A flow cytometer gives signals particle by particle.)

SMILES strings stand for the structures. Some results are limits rather than exact numbers.

Method for SNB-19 cells: as §2

`COc1cccc(-c2ccc(O)c3c2C(=O)c2ccccc2C3=O)c1OC` [Compound 16, 1-(2,3-Dimethoxyphenyl)-4-hydroxyanthracene-9,10-dione]: the melting point (usually the temperature of the solid-liquid transition) was 213.6 °C (dec.). For the same molecule, the GI50 (in general, the concentration at which growth is held to half of that of the control) in data set [1] was greater than 100 µM. For the same molecule, in the data set with DU-145 cells [2], the “Population (% Cell Distribution) DNA Synthesis” value was determined as 27.22%. In addition, in the data set on DU-145 cells [3], the “Population (% Cell Distribution) G0/G1” value was 44.3%, the “Population (% Cell Distribution) G2/M” value turned out to be 7.3%, the “Population (% Cell Distribution) S” value is 30.7% and the “Population (% Cell Distribution) Sub-G1” value is on record as 15.7%. Moreover, the “Population (% Cell Distribution) Super-G2” value with DU-145 cells [3] turned out to be 2.0%. The 50% growth inhibitory concentration (GI50) in data set [4] was greater than 100 µM. The GI50 in data set [5] turned out to be 5.4 ± 0.17 µM. Also, the GI50 in data set [6] amounted to 16.5 ± 0.88 µM. The GI50 in data set [7] is greater than 100 µM. Also, the “Population (% Cell Distribution) DNA Synthesis” value in the data set on SNB-19 cells worked out at 28.67%.
As to `O=C1c2ccccc2C(=O)c2c(-c3ccccc3)ccc(O)c21` [Compound 13, 1-Hydroxy-4-phenylanthracene-9,10-dione], the melting point is 207.3 °C (dec.). In data set [1], the GI50 is greater than 100 µM. In addition, the “Population (% Cell Distribution) DNA Synthesis” value in the data set on DU-145 cells [2] came to 6.83%. In the data set with DU-145 cells [3], the “Population (% Cell Distribution) G0/G1” value stood at 28.7%, the “Population (% Cell Distribution) G2/M” value is recorded as 6.3%, the “Population (% Cell Distribution) S” value is given as 28.7% and the “Population (% Cell Distribution) Sub-G1” value worked out at 34.6%. Also, the “Population (% Cell Distribution) Super-G2” value in the data set with DU-145 cells [3] was 1.6%. For the same molecule, the GI50 in data set [4] stood at 24 ± 1.47 µM. Besides, the GI50 in [5] worked out at 1.1 ± 0.19 µM. Also, in data set [6], the GI50 worked out at 31.2 ± 1.65 µM. In addition, in data set [7], the GI50 amounted to 71 ± 0.7 µM. The “Population (% Cell Distribution) DNA Synthesis” value with SNB-19 cells stood at 28.63%.
